Values quoted from earlier work in article PMC10582678 (Clinical and Translational Science, 2023).
Read-outs that look alike come from different tables or passages of the source.

Target: BTK (Homo sapiens, UniProt Q06187)
Conditions: cited from earlier work

BTK, sequence (Q06187 whole entry): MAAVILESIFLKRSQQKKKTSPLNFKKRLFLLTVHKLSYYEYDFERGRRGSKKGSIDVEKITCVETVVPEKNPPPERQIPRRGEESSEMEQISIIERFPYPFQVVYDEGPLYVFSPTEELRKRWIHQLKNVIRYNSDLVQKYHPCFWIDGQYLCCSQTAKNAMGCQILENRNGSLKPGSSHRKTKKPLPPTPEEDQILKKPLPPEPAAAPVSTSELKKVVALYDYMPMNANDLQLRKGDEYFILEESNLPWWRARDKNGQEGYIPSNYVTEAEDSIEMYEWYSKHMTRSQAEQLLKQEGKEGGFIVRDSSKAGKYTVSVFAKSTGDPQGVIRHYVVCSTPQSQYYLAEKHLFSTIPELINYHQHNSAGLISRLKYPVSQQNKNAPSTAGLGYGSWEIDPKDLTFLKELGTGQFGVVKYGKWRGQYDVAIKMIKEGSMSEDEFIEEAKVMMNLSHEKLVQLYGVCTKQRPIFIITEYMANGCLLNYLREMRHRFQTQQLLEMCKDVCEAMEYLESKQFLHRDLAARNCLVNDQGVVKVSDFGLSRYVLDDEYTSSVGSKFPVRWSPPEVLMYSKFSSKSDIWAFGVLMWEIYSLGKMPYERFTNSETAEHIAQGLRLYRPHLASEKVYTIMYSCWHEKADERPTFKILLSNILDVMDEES

Row | SMILES | BTK receptor occupancy rate (b.i.d., patients with rheumatoid arthritis) | BTK receptor occupancy rate (twice daily dosing regimen)
1 | C=CC(=O)Nc1cccc(Nc2nc(Nc3ccc(OCCOC)cc3)ncc2F)c1 [spebrutinib] | 88% | –
2 | CC#CC(=O)N1CCC[C@H]1c1nc(-c2ccc(C(=O)Nc3ccccn3)cc2)c2c(N)nccn12 [acalabrutinib] | – | 96%
